Where two headings read alike, the source gives them in different places.
Columns and labels:
[1] = target: T1, c-Met (cytoplasmic domain) (Homo sapiens, UniProt P08581); test: c-Met Kinase Assay (same methods as for ALK, with modifications); type: biochemical
T1 construct: 10 ng/mL c-Met (cytoplasmic domain, Invitrogen Corporation #PV3143); purchased Invitrogen Corporation PV3143
In short: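 Steps: coat wells with PLC-γ (10 μg/mL, Tris-buffered saline); add 10 ng/mL c-Met cytoplasmic domain to initiate; incubate 15 min, 37° C; detect phosphoproduct via Eu-N1 PT66 antibody.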

[2] = target: T2, baculovirus-expressed ALK (Homo sapiens, UniProt Q9UM73); test: ALK Kinase Assay (ELISA-type, time-resolved fluorescence); type: biochemical
T2 construct: host or cells: baculovirus expression system
T2 sequence (Q9UM73 19-1620): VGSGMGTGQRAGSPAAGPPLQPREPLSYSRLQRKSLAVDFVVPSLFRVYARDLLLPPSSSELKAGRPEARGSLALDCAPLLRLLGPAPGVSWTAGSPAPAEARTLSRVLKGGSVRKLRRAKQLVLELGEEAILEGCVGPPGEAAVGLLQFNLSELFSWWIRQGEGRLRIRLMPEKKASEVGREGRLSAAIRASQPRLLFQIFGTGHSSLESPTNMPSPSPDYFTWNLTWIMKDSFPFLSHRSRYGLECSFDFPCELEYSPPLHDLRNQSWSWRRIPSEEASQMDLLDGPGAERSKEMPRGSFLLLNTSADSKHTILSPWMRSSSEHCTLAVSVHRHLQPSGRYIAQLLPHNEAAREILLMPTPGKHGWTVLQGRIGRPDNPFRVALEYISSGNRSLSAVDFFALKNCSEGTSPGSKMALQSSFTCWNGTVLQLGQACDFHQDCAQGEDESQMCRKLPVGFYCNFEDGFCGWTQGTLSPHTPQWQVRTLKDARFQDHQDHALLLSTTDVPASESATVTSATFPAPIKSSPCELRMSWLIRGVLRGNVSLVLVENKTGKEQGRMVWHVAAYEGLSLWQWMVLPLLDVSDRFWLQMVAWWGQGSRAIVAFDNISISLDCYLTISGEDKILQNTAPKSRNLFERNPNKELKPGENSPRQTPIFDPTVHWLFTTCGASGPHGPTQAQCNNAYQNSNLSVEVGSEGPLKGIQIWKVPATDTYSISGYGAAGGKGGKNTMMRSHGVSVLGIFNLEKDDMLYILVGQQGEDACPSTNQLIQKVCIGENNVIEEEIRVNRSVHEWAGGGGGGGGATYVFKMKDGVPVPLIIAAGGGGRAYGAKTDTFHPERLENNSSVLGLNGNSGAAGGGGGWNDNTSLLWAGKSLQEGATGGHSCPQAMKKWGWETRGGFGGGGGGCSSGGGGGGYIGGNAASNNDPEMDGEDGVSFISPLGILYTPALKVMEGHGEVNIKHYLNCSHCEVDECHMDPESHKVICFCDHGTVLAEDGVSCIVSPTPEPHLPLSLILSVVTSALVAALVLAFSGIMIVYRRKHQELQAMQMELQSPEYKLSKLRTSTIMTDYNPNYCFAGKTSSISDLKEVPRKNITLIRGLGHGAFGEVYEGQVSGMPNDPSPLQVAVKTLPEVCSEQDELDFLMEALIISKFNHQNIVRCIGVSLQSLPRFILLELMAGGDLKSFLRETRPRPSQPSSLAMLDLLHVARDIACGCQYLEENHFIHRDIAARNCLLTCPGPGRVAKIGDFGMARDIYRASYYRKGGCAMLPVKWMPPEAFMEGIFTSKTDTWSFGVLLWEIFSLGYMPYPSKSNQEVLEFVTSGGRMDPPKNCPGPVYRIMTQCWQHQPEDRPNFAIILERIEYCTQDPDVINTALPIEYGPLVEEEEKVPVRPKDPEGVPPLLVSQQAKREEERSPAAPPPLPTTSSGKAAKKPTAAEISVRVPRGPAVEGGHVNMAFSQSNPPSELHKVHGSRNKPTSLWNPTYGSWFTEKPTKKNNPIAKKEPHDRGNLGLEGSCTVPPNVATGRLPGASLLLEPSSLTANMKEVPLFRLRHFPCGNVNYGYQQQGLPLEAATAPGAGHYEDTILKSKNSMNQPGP
In short: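 Wells were coated with phospholipase C-γ at 10 μg/mL in Tris-buffered saline. Adding 30 ng/ml enzyme started the reaction, which ran at 37° C for 15 minutes before Eu-N1 PT66 antibody detection. Percent inhibition versus log10 concentration gave IC50 by variable-slope fit.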

[3] = 1 μM ATP (Km level), read-out: cMet Activity (c-Met Kinase Inhibition, IC50)
[4] = 1 μM ATP (Km level), read-out: ALK Activity (ALK Kinase Inhibition, IC50)
[5] = c-Met kinase inhibition, 1 μM ATP (Km level), read-out: cMet Activity
[6] = ALK kinase inhibition, 1 μM ATP (Km level), read-out: ALK Activity

T1 sequence (P08581 956-1390 limits assumed): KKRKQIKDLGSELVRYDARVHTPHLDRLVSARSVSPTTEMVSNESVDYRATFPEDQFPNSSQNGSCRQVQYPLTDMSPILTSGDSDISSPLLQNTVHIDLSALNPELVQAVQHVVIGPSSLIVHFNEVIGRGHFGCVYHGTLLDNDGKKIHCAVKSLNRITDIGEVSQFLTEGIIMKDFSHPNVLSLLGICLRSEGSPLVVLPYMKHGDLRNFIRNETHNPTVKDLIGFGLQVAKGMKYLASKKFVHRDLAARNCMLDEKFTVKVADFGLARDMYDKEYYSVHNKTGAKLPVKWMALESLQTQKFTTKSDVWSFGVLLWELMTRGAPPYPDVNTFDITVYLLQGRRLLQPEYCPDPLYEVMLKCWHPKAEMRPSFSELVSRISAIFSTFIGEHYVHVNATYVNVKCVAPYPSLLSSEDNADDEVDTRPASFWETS

SMILES	IC50 [1, 3]	IC50 [2, 4]	IC50 [1, 5]	IC50 [2, 6]	also measured
COCCNC1CCc2ccc(Nc3ncc(Cl)c(Nc4ccccc4S(=O)(=O)N4CCC(O)C4)n3)c(OC)c2CC1 (centres unmarked) [Example 695, 1-(2-{5-Chloro-2-[1-methoxy-7-(2-methoxy-ethylamino)-6,7,8,9-tetrahydro-5H-benzocyclohepten-2-ylamino]-pyrimidin-4-ylamino}-benzenesulfonyl)-pyrrolidin-3-ol]	1 to 10 µM	< 0.1 µM			
COc1c(Nc2ncc(Cl)c(Nc3ccccc3S(=O)(=O)N3CC[C@@H](O)C3)n2)ccc2c1CCCC(NCCO)C2 (stereo partly drawn) [Example 962, (R)-1-(2-{5-Chloro-2-[6-(2-hydroxy-ethylamino)-1-methoxy-6,7,8,9-tetrahydro-5H-benzocyclohepten-2-ylamino]-pyrimidin-4-ylamino}-benzenesulfonyl)-pyrrolidin-3-ol]	> 10 µM	< 0.1 µM			
CNC(=O)c1cccc(F)c1Nc1nc(Nc2ccc3c(c2)C(C)(C)NC(=O)CC3)ncc1Cl [Example 1831, 2-(5-Chloro-2-(1,1-dimethyl-3-oxo-2,3,4,5-tetrahydro-1H-benzo[c]azepin-8-ylamino)pyrimidin-4-ylamino)-3-fluoro-N-methylbenzamide]					IC50 ([1]; c-Met kinase inhibition, 1 μM ATP, read-out: cMet Activity): < 0.1 µM; IC50 ([2]; ALK kinase inhibition, 1 μM ATP, read-out: ALK Activity): 1 to 10 µM
COCC(COC)N1CCc2cc(Nc3ncc(Cl)c(N[C@@H]4CCCC[C@H]4NS(C)(=O)=O)n3)c(OC)cc2CC1 [Example 816, N-((1R,2R)-2-{5-Chloro-2-[8-methoxy-3-(2-methoxy-1-methoxymethyl-ethyl)-2,3,4,5-tetrahydro-1H-benzo[d]azepin-7-ylamino]-pyrimidin-4-ylamino}-cyclohexyl)-methanesulfonamide]	> 10 µM	< 0.1 µM			
CCN1C(=O)CCCc2ccc(Nc3ncc(Cl)c(Nc4ccc(CC#N)cc4)n3)cc21 [Example 1225, {4-[5-Chloro-2-(1-ethyl-2-oxo-2,3,4,5-tetrahydro-1H-1-benzazepin-8-ylamino)-pyrimidin-4-ylamino]-phenyl}-acetonitrile]					IC50 ([1]; 1 μM ATP (Km level), 10 ng/mL c-Met, read-out: cMet Activity (c-Met kinase inhibition, IC50 class)): 1 to 10 µM; IC50 ([2]; 1 μM ATP (Km level), 30 ng/ml ALK, 37° C., 15 minutes, read-out: ALK Activity (ALK kinase inhibition, IC50 class)): 0.1 to 1 µM
CCN1CCN(CC)c2cc(Nc3ncc(Cl)c(N[C@@H]4CCCC[C@H]4NS(C)(=O)=O)n3)ccc2C1 [Example 426, N-{(1R,2R)-2-[5-Chloro-2-(1,4-diethyl-2,3,4,5-tetrahydro-1H-benzo[e][1,4]diazepin-8-ylamino)-pyrimidin-4-ylamino]-cyclohexyl}-methanesulfonamide]			0.1 to 1 µM	< 0.1 µM	
COc1cc2c(cc1Nc1ncc(Cl)c(N[C@H]3[C@@H](C(N)=O)[C@@H]4C=C[C@H]3C4)n1)CCN(CC(C)(F)F)CC2 [Example 782, (1S,2S,3R,4R)-3-{5-Chloro-2-[3-(2,2-difluoro-propyl)-8-methoxy-2,3,4,5-tetrahydro-1H-benzo[d]azepin-7-ylamino]-pyrimidin-4-ylamino}-bicyclo[2.2.1]hept-5-ene-2-carboxylic acid amide]	> 10 µM	< 0.1 µM			

Further lines, with some results ahead:

IC50 [1, 3]	IC50 [2, 4]	IC50 [1, 5]	IC50 [2, 6]	SMILES	also measured
		< 0.1 µM	< 0.1 µM	CNC(=O)c1ccccc1Nc1nc(Nc2ccc3c(c2)CCN(CCF)CC3)ncc1Cl [Example 38, 2-{5-Chloro-2-[3-(2-fluoro-ethyl)-2,3,4,5-tetrahydro-1H-benzo[d]azepin-7-ylamino]-pyrimidin-4-ylamino}-N-methyl-benzamide]	
		< 0.1 µM	< 0.1 µM	CCN1CCc2ccc(Nc3ncc(Cl)c(Nc4cc(Cl)ccc4C(=O)NC)n3)cc2CC1 [Example 33, 4-Chloro-2-[5-chloro-2-(3-ethyl-2,3,4,5-tetrahydro-1H-benzo[d]azepin-7-ylamino)-pyrimidin-4-ylamino]-N-methyl-benzamide]	
< 0.1 µM	< 0.1 µM			CCN1CCOc2cc(Nc3ncc(Cl)c(Nc4ccccc4C(=O)NC)n3)ccc2C1=O [Example 515, 2-[5-Chloro-2-(4-ethyl-5-oxo-2,3,4,5-tetrahydro-benzo[f][1,4]oxazepin-8-ylamino)-pyrimidin-4-ylamino]-N-methyl-benzamide]	
